Laboratory results from patent US20030144346A1, “Methods and compositions for regulation of 5-alpha reductase activity” (priority 1997, published 2003).

Tests used:
[1] = target: T1, type 2 human 5α-reductase (HRED2) (Homo sapiens, UniProt P31213); assay: Whole cell assay of 5α-reductase, type 2 isoenzyme; assay type: cell-based; parameters: expressed in transfected cells; host or cells: rat 1A cells infected with pMV7 retrovirus; settings: for IC50: Table 7, read-out: HCRED2 IC50;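 as to all read-outs here: intact rat 1A cells genetically modified to carry human type 2 5α-reductase served as the enzyme source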
T1 sequence (P31213 1-254): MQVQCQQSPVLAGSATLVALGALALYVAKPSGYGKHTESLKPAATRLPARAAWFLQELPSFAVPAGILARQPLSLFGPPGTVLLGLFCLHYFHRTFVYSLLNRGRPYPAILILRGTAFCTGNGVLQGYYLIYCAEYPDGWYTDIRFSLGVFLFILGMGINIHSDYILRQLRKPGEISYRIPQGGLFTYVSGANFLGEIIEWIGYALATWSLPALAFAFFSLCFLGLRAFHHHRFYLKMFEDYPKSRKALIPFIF

[2] = target: T2, type 1 human 5α-reductase (HRED1) (Homo sapiens, UniProt P18405); assay: Cell free assay of 5α-reductase, microsomes of rat 1A cells expressing type 1 isoenzyme (HRED1); assay type: biochemical; parameters: expressed in transfected cells; host or cells: rat 1A cells infected with pMV7 retrovirus; microsomes; settings: for HRED1 % Inhibition @ 100 μM: Table 5;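 as to all read-outs here: microsomes from rat 1A cells expressing human type 1 5α-reductase, conversion of radiolabeled testosterone to dihydrotestosterone quantified by thin layer chromatography with radioanalytic scanning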
T2 sequence (P18405 1-259): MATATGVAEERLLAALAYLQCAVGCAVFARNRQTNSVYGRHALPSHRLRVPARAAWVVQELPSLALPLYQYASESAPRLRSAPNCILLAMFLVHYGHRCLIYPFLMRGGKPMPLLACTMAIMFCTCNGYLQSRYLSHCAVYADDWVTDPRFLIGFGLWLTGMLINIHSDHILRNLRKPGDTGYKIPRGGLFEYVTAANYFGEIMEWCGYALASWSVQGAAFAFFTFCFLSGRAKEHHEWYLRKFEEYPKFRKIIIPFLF

[3] = target: T2, type 1 human 5α-reductase (HRED1); assay: Whole cell assay of 5α-reductase, type 1 isoenzyme; assay type: cell-based; parameters: expressed in transfected cells; host or cells: rat 1A cells infected with pMV7 retrovirus; settings: for HRED1 % Inhibition @ 100 μM / IC50 / inhibition at 100 µM: Table 7;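 as to all read-outs here: intact rat 1A cells engineered to express the human type 1 5α-reductase isozyme serve as the enzyme source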
[4] = target: T1, type 2 human 5α-reductase (HRED2); assay: Cell free assay of 5α-reductase, microsomes of rat 1A cells expressing type 2 isoenzyme (HRED2); assay type: biochemical; parameters: expressed in transfected cells; host or cells: rat 1A cells infected with pMV7 retrovirus; microsomes; settings: for HRED2 % Inhibition @ 100 μM: Table 5;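 as to all read-outs here: labeled testosterone and its product dihydrotestosterone measured in microsomal reaction extracts via thin layer chromatography plus radioanalytic scanning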
[5] = cell free assay, Table 5 epigallocatechin derivatives, read-out: HRED1 IC50
[6] = whole cell assay, read-out: HCRED1 IC50
[7] = cell free assay, Table 5 epigallocatechin derivatives, read-out: HRED2 IC50
[8] = 100 uM, cell free assay, Table 2
[9] = cell free assay, Table 2 catechols, read-out: HRED1 IC50
[10] = cell free assay, Table 2 catechols, read-out: HRED2 IC50
[11] = 100 uM, cell free assay, Table 1, read-out: HRED1 % Inhibition @ 100 uM
[12] = cell free assay, Table 1 flavanoids, read-out: HRED1 IC50
[13] = 100 uM, cell free assay, Table 1, read-out: HRED2 % Inhibition @ 100 uM
[14] = cell free assay, Table 1 flavanoids, read-out: HRED2 IC50
[15] = read-out: HRED1 % Inhibition @ 100 μM
[16] = cell free assay, Table 4 quinones, read-out: HRED2 IC50
[17] = 100 uM, cell free assay, Table 2, read-out: HRED1 % Inhibition @ 100 uM
[18] = 100 uM, cell free assay, Table 2, read-out: HRED2 % Inhibition @ 100 uM

Structure (SMILES)	HRED2 % Inhibition @ 100 μM ([1]; Table 7)	IC50 [1]	HRED1 % Inhibition @ 100 μM ([2]; cell free assay)	IC50 [2, 5]	HRED1 % Inhibition @ 100 μM ([3]; whole cell assay)	IC50 [3, 6]	HRED2 % Inhibition @ 100 μM ([4]; 100 μM, cell free assay)	IC50 [4, 7]	IC50 [2, 9]	IC50 [4, 10]	inhibition at 100 µM ([1]; Table 7)	inhibition at 100 µM ([3]; whole cell assay)	also measured
O=C(OC1Cc2c(O)cc(O)cc2OC1c1cc(O)c(O)c(O)c1)C1CCCCC1 (stereo not shown) [HZIV 144]	7%	> 100 µM	88%	49 µM	12%	> 100 µM	38%	> 100 µM	–	–	–	–	–
CC(=O)OC1Cc2c(O)cc(O)cc2OC1c1cc(O)c(O)c(O)c1 (stereo not shown) [HZIV 145]	9%	> 100 µM	35%	> 100 µM	8%	> 100 µM	8%	> 100 µM	–	–	–	–	–
CCCCCCCCCCCCCCCCCC(=O)OC1Cc2c(O)cc(O)cc2OC1c1cc(O)c(O)c(O)c1 (stereo not shown) [HZIV 148]	81%	74 µM	31%	> 100 µM	90%	42 µM	0%	> 100 µM	–	–	–	–	–
CCCCC=CCCCCCCCC(=O)OC1Cc2c(O)cc(O)cc2OC1c1cc(O)c(O)c(O)c1 (stereo not shown) [HZIV 160]	98%	8 µM	99%	29 µM	99%	7 µM	96%	76 µM	–	–	–	–	inhibitory activity against type 1 isoenzyme, in words ([2]; cell-free assay): effective; inhibitory activity in the whole cell assay, type 1 isoenzyme, in words ([3]; whole cell assay): effective
CCCCCC(=O)OC1Cc2c(O)cc(O)cc2OC1c1cc(O)c(O)c(O)c1 (stereo not shown) [HZIV 169]	0%	> 100 µM	90%	47 µM	10%	> 100 µM	39%	> 100 µM	–	–	–	–	–
COc1cc(C(=O)C=Cc2ccc(N(C)C)cc2)cc(OC)c1OC [HZIV-82]	15%	> 100 µM	–	–	79%	3 µM	–	–	> 100 µM	> 100 µM	–	–	HRED1 % Inhibition @ 100 uM [2, 8]: 43%; inhibitory activity against type 1 isoenzyme, in words ([2]; cell-free assay): little activity; inhibitory activity in the whole cell assay, type 1 isoenzyme, in words ([3]; whole cell assay): very active; HRED2 % Inhibition @ 100 uM [4, 8]: 0%
O=c1c(O)c(-c2ccc(O)cc2)oc2cc(O)cc(O)c12 [Kaempferol]	–	20 µM	–	–	–	79 µM	–	–	–	–	85%	60%	inhibitory activity in the whole cell assay, type 2 isoenzyme, in words [1]: significant inhibitory activity; inhibition at 100 µM [2, 11]: 22%; IC50 [2, 12]: > 100 µM; inhibition at 100 µM [4, 13]: 62%; IC50 [4, 14]: 12 µM
CCCCC/C=C\C/C=C\CCCCCCCC(=O)O [Linoleic Acid, Linoleic Acid C18:2 CIS 9,12]	–	25 µM	–	–	–	40 µM	–	–	–	–	–	–	IC50 ([2]; cell free assay, Table 6 fatty acids, read-out: HRED1 IC50): 9 µM; IC50 ([4]; cell free assay, Table 6 fatty acids, read-out: HRED2 IC50): 19 µM
CC1=CC(=O)c2ccccc2C1=O [Menadione]	–	79 µM	–	–	–	–	–	–	–	–	62%	82%	IC50 [2]: 6 µM; inhibitory activity against type 1 isoenzyme, in words ([2]; cell-free assay): potent cell-free inhibitors; inhibition at 100 µM [2, 15]: 77%; IC50 ([3]; HCRED1 IC50, whole cell assay): 51 µM; inhibitory activity in the whole cell assay, type 1 isoenzyme, in words ([3]; whole cell assay): moderate activity; inhibition at 100 µM ([4]; 100 μM, cell free assay, Table 4, read-out: HRED2 % Inhibition @ 100 μM): 81%; IC50 [4, 16]: 5 µM; inhibitory activity against type 2 isoenzyme, in words ([4]; cell-free assay): potent cell-free inhibitors
COC(=O)c1cc(O)c(O)c(O)c1 [Methylgallate]	–	> 100 µM	–	–	–	> 100 µM	–	–	> 100 µM	> 100 µM	0%	0%	inhibition at 100 µM [2, 17]: 5%; inhibition at 100 µM [4, 18]: 3%
CCCCCCCCOC(=O)c1cc(O)c(O)c(O)c1 [Octyl Gallate]	–	18 µM	–	–	–	7 µM	–	–	27 µM	58 µM	94%	99%	inhibition at 100 µM [2, 17]: 99%; inhibitory activity in the whole cell assay, type 1 isoenzyme, in words ([3]; whole cell assay): active; inhibition at 100 µM [4, 18]: 90%
CCCCCCCC/C=C\CCCCCCCC(=O)O [Oleic Acid, Oleic Acid C18:1 CIS 9]	–	> 100 µM	–	–	–	–	–	–	–	–	45%	58%	IC50 [2]: 10 µM; inhibition at 100 µM [2, 15]: 99%; IC50 ([3]; HCRED1 IC50, whole cell assay): 83 µM; IC50 [4]: 42 µM; inhibition at 100 µM ([4]; read-out: HRED2 % Inhibition @ 100 μM): 86%
CCCOC(=O)c1cc(O)c(O)c(O)c1 [Propylgallate]	–	> 100 µM	–	–	–	> 100 µM	–	–	> 100 µM	> 100 µM	0%	5%	inhibition at 100 µM [2, 17]: 0%; inhibition at 100 µM [4, 18]: 0%
O=C1c2ccccc2C(=O)c2c(O)c(O)cc(O)c21 [Purpurin]	–	> 100 µM	–	–	–	> 100 µM	–	–	–	–	7%	47%	IC50 ([2]; cell free assay, Table 4 quinones, read-out: HRED1 IC50): 2 µM; IC50 [4, 16]: > 100 µM
Oc1cccc(O)c1O [Pyrogallol]	–	> 100 µM	–	–	5%	> 100 µM	–	–	70 µM	> 100 µM	–	7%	HRED2 % Inhibition @ 100 μM ([1]; Table 7, 100 µM): 6%; inhibition at 100 µM [2, 17]: 60%; inhibition at 100 µM [4, 18]: 28%
O=c1c(O)c(-c2ccc(O)c(O)c2)oc2cc(O)cc(O)c12 [Quercitin]	–	> 100 µM	–	–	–	> 100 µM	–	–	–	–	29%	15%	inhibition at 100 µM [2, 11]: 96%; IC50 [2, 12]: 23 µM; IC50 ([2]; cell-free assay, read-out: IC50, type 1 isoenzyme): < 100 µM; inhibition at 100 µM [4, 13]: 14%; IC50 [4, 14]: > 100 µM
